# Entries after “also recorded” stand apart in the source; their conditions may differ. No end group written: not given here.
# Legend:
# [1] = test system: monoclonal antibody 5H8 against the surface protein of P. knowlesi; experiment: Binding of 125I-labelled tetraeicosapeptide to Sepharose beads bearing monoclonal antibody 5H8; set-up: species or system mouse
# Description: (§1) Monoclonal antibodies against surface antigens of sporozoites of the simian malaria parasite Plasmodium knowlesi were produced by fusion of plasmacytoma cells with spleen cells of a mouse immunized witn the parasite as previously described by Cochrane et al., supra., (1982) and described in detail in the Malaria Vaccine patent application. The monoclonal antibodies (four idiotypes: 2G3, 8B8, 5H8 and 8E11 were partially purified from ascites of mice bearing hybridomas by 50% ammonium sulphate precipitation followed by molecular sieve chromatography on Sephadex G-200.
# (§2) To determine whether the 24-peptide is recognized by all monoclonal antibodies, 5 mg of purified monoclonal antibodies were bound to 1 ml of CNBr activated Sepharose 4B (Pharmacia Fine Chemicals, Piscataway, N.J., U.S.A.) according to instructions of the manufacturer. The 24 amino acid peptide was radiolabelled with ^125 I with the Boulton-Hunter reagent, to a specific activity of approximately 10^4 cpm/μg. Twenty μl of beads bearing the different antibodies were incubated for 60 minutes at room temperature in the presence of 100 μl of PBS-BSA containing either 1 μg of the radiolabelled peptide alone or radiolabelled peptide in the presence of […] of cold tetraeicosapeptide. The beads were then washed by centrifugation with PBS-BSA and counted in a gamma-counter.
# [2] = test system: monoclonal antibody (3D11) against the surface protein of P. berghei; experiment: Binding of 125I-labelled tetraeicosapeptide to control beads bearing monoclonal antibody 3D11
# Description: as §2
# [3] = test system: binding of radiolabelled 8E11 to the CS protein of P. knowlesi; experiment: Inhibition radioimmunoassay: binding of radiolabelled monoclonal antibody 8E11 to P. knowlesi CS protein
# Description: (§3) The immunoactivity of the synthetic peptides was evaluated by measuring their ability to inhibit the reaction between the monoclonal anti-CS and the antigen (CS protein). Antigen was purified from sporozoites, as disclosed in the Malaria Vaccine patent application and as also described by Vanderberg, supra, and Zavala, F., et al, supra, 1982, is preferably employed using ^125 I-labeled antibody.
# (§4) Competitive inhibition of the antigen-antibody reaction by the thus synthesized peptides was measured by the following radioimmunoassay. P. knowlesi sporozoite CS protein was used as the antigen.
# (§5) (a) Preparation of antigen: 3,000 purified P. knowlesi sporozoites (Vanderberg et al., Military Medicine 134:1183, 1969) in 50 μl of phosphate buffered saline (PBS) containing protease inhibitors, were delivered to the bottom of polystyrene (Falcon 3911 plate, B-D and Co., Oxnard, Calif.) microtiter plates, which were sealed with parafilm and frozen at -70° C. for at least ten minutes. The plates were then allowed to defrost slowly at room temperature. This procedure was repeated six times. Then the plates were incubated at 4° C. overnight, and at 56° C. for five minutes. The P. knowlesi extract was then removed from the wells and these were washed three times with PBS containing 1% bovine serum albumin (BSA) and 0.1% NaN3. The wells were then filled with PBS-BSA-NaN3 for a few hours at room temperature.
# (§6) All synthetic peptides were dissolved in PBS at a concentration of 10 mM and subsequently diluted serially in PBS-1% BSA/0.1% NaN3. Twenty-five μl of serial dilutions of each peptide were added to the wells coated with antigen. Control wells received only the diluent. Then, 25 μl of the ^125 I-labelled monoclonal antibody (about 5-10ng, 10 ^5 cpm) were added to the wells. The microtiter plates were incubated at 4° C. for 18 hours, washed 5 times with PBS-BSA-NaN3 and then the wells were counted for well-bound antibody. (LKB 1260 Muilti-gamma γ-counter LKB Instruments, Inc., Gaithersburg, Md.). […]
# [4] = test system: binding of monoclonal antibody 2G3 to the CS protein P. knowlesi; conditions: cited from earlier work
# [5] = test system: monoclonal antibody 8A8 against the surface protein of P. knowlesi; experiment: Binding of 125I-labelled tetraeicosapeptide to Sepharose beads bearing monoclonal antibody 8A8; set-up: species or system mouse
# [6] = test system: monoclonal antibody 8B8 against the surface protein of P. knowlesi; experiment: Binding of 125I-labelled tetraeicosapeptide to Sepharose beads bearing monoclonal antibody 8B8; set-up: species or system mouse
# Description: as §1, §2
# [7] = test system: binding of monoclonal antibody 2G3 to the CS protein P. knowlesi; experiment: Inhibition radioimmunoassay: binding of 125I-labelled monoclonal antibody 2G3 to P. knowlesi CS protein; conditions: for Inhibitory activity on binding of monoclonal antibody 2G3 to CS protein (in words): FIGS. 1, 2 / Table 3
# Description: as §3, §4, §5, §6
# [8] = test system: monoclonal anti-CS / CS protein of P. knowlesi; experiment: Reactivity of synthetic peptides with monoclonal anti-CS (antibody not specified); type: binding; conditions: antibody not given; compared with (1-12) or (5-12) where stated
# Description: Four monoclonal antibodies (2G3, 5H8, 8B8, and 8E11) were used in immunoactivity testing of synthesized shorter length analogs of the 12-peptide. The purpose was further localization and identification of the epitope contained therein.
# After synthesis, cleavage and purification, the peptides were tested for reactivity with monoclonal anti-CS, preferably partially purified. The anti-CS used in these tests were produced by ascites tumor induction using hybridoma cells resulting from the fusion of plasmacytoma cells with spleen cells of a mouse immunized with the parasite, as described by Cochrane, A. H. et al, supra, and as disclosed in the Malaria Vaccine patent application.
# The immunoactivity of the synthetic peptides was evaluated by measuring their ability to inhibit the reaction between the monoclonal anti-CS and the antigen (CS protein). […]
# Competitive inhibition of the antigen-antibody reaction by the thus synthesized peptides was measured by the following radioimmunoassay. […]
# (§7) All synthetic peptides were dissolved in PBS at a concentration of 10 mM and subsequently diluted serially in PBS-1% BSA/0.1% NaN3. […] The microtiter plates were incubated at 4° C. for 18 hours, washed 5 times with PBS-BSA-NaN3 and then the wells were counted for well-bound antibody. […]
# [9] = test system: monoclonal antibody 2G3 against the surface protein of P. knowlesi; experiment: Binding of 125I-labelled tetraeicosapeptide to Sepharose beads bearing monoclonal antibody 2G3; set-up: species or system mouse
# Description: as §1, §2
# [10] = test system: monoclonal antibody 8E11; experiment: Binding of 125I-labelled tetraeicosapeptide to Sepharose beads bearing monoclonal antibody 8E11; set-up: species or system mouse; conditions: other experiments, not shown
# Description: as §1, §2
# [11] = test system: binding of monoclonal antibody 5H8 to the CS protein P. knowlesi; experiment: Inhibition radioimmunoassay: binding of 125I-labelled monoclonal antibody 5H8 to P. knowlesi CS protein; conditions: summary of FIGS. 1, 3 / Table 3
# Description: as §3, §4
# (§8) (a) Preparation of antigen: 3,000 purified P. knowlesi sporozoites (Vanderberg et al., Military Medicine 134:1183, 1969) in 50 μl of phosphate buffered saline (PBS) containing protease inhibitors, were delivered to the bottom of polystyrene (Falcon 3911 plate, B-D and Co., Oxnard, Calif.) microtiter plates, which were sealed with parafilm and frozen at -70° C. for at least ten minutes. The plates were then allowed to defrost slowly at room temperature. This procedure was repeated six times. […]
# as §7
# [12] = test system: monoclonal antibody 6B8; experiment: Binding of 125I-labelled tetraeicosapeptide to Sepharose beads bearing monoclonal antibody 6B8; set-up: species or system mouse; conditions: other experiments, not shown
# Description: as §1, §2
# [13] = test system: binding of monoclonal antibody 8B8 to the CS protein P. knowlesi; experiment: Inhibition radioimmunoassay: binding of 125I-labelled monoclonal antibody 8B8 to P. knowlesi CS protein; conditions: text summary of FIG. 4 / Table 3
# Description: as §3, §4, §8, §7
# [14] = 5H8 beads in PBS-BSA + excess of cold tetraeicosapeptide
# [15] = control 3D11 beads suspended in PBS-BSA
# [16] = 8A8 beads in PBS-BSA + excess of cold tetraeicosapeptide
# [17] = 8B8 beads in PBS-BSA + excess of cold tetraeicosapeptide
# [18] = 2G3 beads in PBS-BSA + excess of cold tetraeicosapeptide
substance,measurement,setting,value
H-QAQGDGANAGQPQAQGDGANAGQP-NH2 [Peptide 1-24],% of input of radiolabelled tetraeicosa peptide that bound to the beads,[1]; [14],0.2 % of input
same,cpm of radiolabelled tetraeicosa peptide that bound to the beads,[1]; [14],20 cpm
same,% of input of radiolabelled tetraeicosa peptide that bound to the beads,[1]; 5H8 beads suspended in PBS-BSA,19.7 % of input
same,cpm of radiolabelled tetraeicosa peptide that bound to the beads,[1]; 5H8 beads suspended in PBS-BSA,2332 cpm
same,cpm of radiolabelled tetraeicosa peptide that bound to the beads,[2]; control 3D11 beads in PBS-BSA + excess of cold tetraeicosapeptide,0 cpm
same,% of input of radiolabelled tetraeicosa peptide that bound to the beads,[2]; [15],0.2 % of input
same,cpm of radiolabelled tetraeicosa peptide that bound to the beads,[2]; [15],25 cpm
same,Inhibition of binding of antibody 8E11 to CS protein (in words),[3],inhibited
same,IC50,"[3]; FIG. 1, read-out: Concentration giving about 50% inhibition of binding of radiolabelled 8E11 to the CS protein",~10 µM
same,Reactivity with monoclonal anti-CS 2G3 (previous work),[4],interacted simultaneously with two molecules of 2G3
same,% of input of radiolabelled tetraeicosa peptide that bound to the beads,[5]; [16],0.2 % of input
same,cpm of radiolabelled tetraeicosa peptide that bound to the beads,[5]; [16],25 cpm
same,% of input of radiolabelled tetraeicosa peptide that bound to the beads,[5]; 8A8 beads suspended in PBS-BSA,10.3 % of input
same,cpm of radiolabelled tetraeicosa peptide that bound to the beads,[5]; 8A8 beads suspended in PBS-BSA,1092 cpm
same,% of input of radiolabelled tetraeicosa peptide that bound to the beads,[6]; [17],0.2 % of input
same,cpm of radiolabelled tetraeicosa peptide that bound to the beads,[6]; [17],20 cpm
same,% of input of radiolabelled tetraeicosa peptide that bound to the beads,[6]; 8B8 beads suspended in PBS-BSA,27.8 % of input
same,cpm of radiolabelled tetraeicosa peptide that bound to the beads,[6]; 8B8 beads suspended in PBS-BSA,3155 cpm
same,Inhibitory activity on binding of monoclonal antibody 2G3 to CS protein (in words),[7],almost identical
same,Reactivity with monoclonal anti-CS (in words),[8],reacted
same,% of input of radiolabelled tetraeicosa peptide that bound to the beads,[9]; [18],0.2 % of input
same,cpm of radiolabelled tetraeicosa peptide that bound to the beads,[9]; [18],25 cpm
same,% of input of radiolabelled tetraeicosa peptide that bound to the beads,[9]; 2G3 beads suspended in PBS-BSA,25.8 % of input
same,cpm of radiolabelled tetraeicosa peptide that bound to the beads,"[9]; 2G3 beads suspended in PBS-BSA, 1 μg radiolabelled peptide",2922 cpm
same,Binding of radiolabelled (1-24) to beads bearing 8E11 (in words),[10],Analogous results
same,Inhibitory activity on binding of monoclonal antibody 5H8 to CS protein (in words),[11],almost identical
same,Binding of radiolabelled (1-24) to beads bearing 6B8 (in words),[12],Analogous results
"QAQGDGANAGQP-NH2 [Peptide 1-12, NH2 Gln-Ala-Gln-Gly-Asp-Gly-Ala-Asn-Ala-Gly-Gln-ProCONH2]",Inhibitory effect on binding of 8E11 to CS protein at a fixed concentration,[3]; at a concentration of 10^-2 M,no appreciable inhibitory effect
same,Reactivity with monoclonal anti-CS 2G3 (previous work),[4],very effectively inhibited
same,Inhibitory activity on binding of monoclonal antibody 2G3 to CS protein (in words),[7],almost identical; also recorded: strongly inhibitory
same,Molar concentration of peptide (×5) necessary for 50% inhibition of binding of monoclonal antibody 2G3,"[7]; head prints (×5), radiolabeled 2G3, CS protein P. knowlesi immobilized on wells, 4° C. for 18 hours",10^-13 Molar
same,Inhibitory activity on binding of monoclonal antibody 8B8 to CS protein (in words),[13],strongly inhibitory
same,Reactivity with monoclonal anti-CS (in words),[8],very efficient inhibitors
same,Inhibitory activity on binding of monoclonal antibody 5H8 to CS protein (in words),[11],almost identical; also recorded: strongly inhibitory

# Reference: patent US4769235A, “Immunodominant epitope of the circumsporozoite surface protein” (New York University, priority 1984, dated 1988)
